Experimental data as given in patent publication US11872230B2, “Method of treating a methionine-dependent cancer” (Agency for Science, Technology and Research, priority 2018, dated 2024).
“Also recorded” adds a separate entry of the source. Where a SMILES comes first, the peptide text is derived from it. The star is where a group is joined. Cbz = O=C(OCc1ccccc1)*

Legend:
TS cells (lung TICs) [1] = test: Intraperitoneal administration to NSG mice subcutaneously implanted with lung TICs; assay type: in vivo; conditions: cisplatin 4 mg/kg i.p., three days, 6 weeks
Source text: (§1) 5×10^5 single cells were mixed in a 1:1 mixture of serum free DMEM/F12 and Matrigel (BD) and injected subcutaneously into the flanks of 4-6 week old male and female NOD.Cg-Prkdc^scid Il2rg^tm1wjl SzJ (Jackson Laboratories). About 6 weeks later, or when tumor sizes exceed 2 cm in length, mice were sacrificed and tumors harvested for analysis. All animal experiments were approved by the Agency for Science Technology and Research Singapore—Biological Resource Centre. Mice were randomized by sex.
Since FIDAS5 appeared to more specifically disrupt the methionine cycle and inhibit cellular methylation activities compared to D9, it was sought to test whether its systemic delivery could impact the tumorigenic potential of TS cells. These highly tumorigenic cells were first subcutaneously implanted into NSG mice and FIDAS5 (40 mg/kg) or corn oil carrier was immediately administered via intraperitoneal injection for three consecutive days. After 6 weeks, mice transiently treated with FIDAS5 produced tumors that were much smaller than carrier-treated controls. […] To exclude the possibility of general cytotoxicity associated with the inhibitor on TS cells, TS cell-implanted NSG mice were treated with cisplatin (4 mg/kg), a frontline chemotherapeutic agent that broadly target bulk cancer cells in NSCLC tumors, in the same manner (FIG. 5i). […]

[2] = test system: histone methylation in TS cells; test: Western blot of methylated histones in TS cells; assay type: cell-based, human
Description: (§2) 1.5×10^6 cells were lysed in Llaemli-SDS buffer and then sonicated. Total protein concentration was measured by Bradford assay. Total cell lysates were separated by SDS-PAGE and transferred onto nitrocellulose, followed by blocking in 5% (v/v) milk in Tris-buffered saline in Tween 20, probing with the indicated antibodies and visualized by chemiluminescence (Roche). Primary antibodies used were anti-β-Actin (sc-47778), anti-GAPDH (sc-32233) from Santa Cruz: anti-GLDC (ab97625), anti-H3 (ab1791), anti-H3 (dimethylK36) (ab9049), anti-MAT2A (ab77471), anti-MTR (ab9209), anti-H3 (trimethylK79) (ab2621), anti-MTHFR (ab125707), anti-MTAP (ab ab55517) from Abcam; anti-H3(trimethyl K4) (39159), anti-H3(trimethyl K27)(39155), anti-H3(trimethylK36)(61101) and anti-H3(trimethylK9)(39765) from Active Motif; anti-β-catenin (BD610154) from BD Biosciences; anti-SHMT2 (HPA020549) and anti-SAHH (WH0000191M8) from Sigma; anti-Symmetric Di-Methyl Arginine Motif (13222) from CST.
(§3) To evaluate the methionine cycle as a therapeutic target in lung TICs, small molecule inhibitors that target enzymes within this pathway were employed, mimicking the effects of short-term methionine starvation (FIG. 5a). two inhibitors known to perturb methionine cycle activity and cellular methylation levels: 1) MAT2A inhibitor, FIDAS5; and 2) SAHH inhibitor, D9, which is an analog of DZNep. In a manner similar to amino acid starvation studies, TS cells were exposed transiently to the compounds for 48 h in culture and were immediately used for downstream tumorigenesis assays.

[3] = test system: methylated histones in TS cells; test: Protein turnover experiment (cycloheximide) of methylated histones in TS cells; assay type: cell-based, human; conditions: MG132 10 μM with 20 μg/ml cycloheximide
Description: as §2
5×10^5 cells were treated with 20 μg/ml of cycloheximide (Sigma) and harvested for immunoblotting at indicated time points thereafter.

TS cells (lung TICs) [4] = test: Soft agar colony formation of pre-treated TS cells; assay type: cell-based, human
Description: 2.5 ml lower layer of 0.7% agar in complete DMEM/F12 with 10% fetal bovine serum was placed in 3 wells of a 6 well dish, and permitted to solidify. 2×10^4 Cells (for 3 wells) were then suspended in a 2 ml layer of 0.35% agar in complete DMEM/F12 with 10% fetal bovine serum and layered on top of the bottom layer. Colonies were stained with crystal violet and counted after approximately 2 months.
as §3

TS cells (lung TICs) [5] = test: Tumor formation in NSG mice after transplantation of pre-treated TS cells; assay type: in vivo
Source text: as §1, §3

[6] = test system: histone methylation in GLDC KD cells; test: Western blot of methylated histones in GLDC KD cells with metabolite supplementation; assay type: cell-based, human; conditions: SAM 500 μM 48 h, formate 0.5 mM, methyl-THF 20 μM or adenosine 200 μM
Description: (§4) 1.5×10^6 cells were lysed in Llaemli-SDS buffer and then sonicated. Total protein concentration was measured by Bradford assay. Total cell lysates were separated by SDS-PAGE and transferred onto nitrocellulose, followed by blocking in 5% (v/v) milk in Tris-buffered saline in Tween 20, probing with the indicated antibodies and visualized by chemiluminescence (Roche).

GLDC KD cells = test: Tumor mass in NSG mice after transplantation of SAM supplemented GLDC KD cells; assay type: in vivo; conditions: GLDC KD cells supplemented with SAM for 48 hours before xenografting
Source text: as §1

[7] = test system: MTHFR abundance in GLDC KD cells; test: Western blot of MTHFR in SAM supplemented GLDC KD cells; assay type: cell-based, human
Description: as §2

[8] = test system: ATP levels in knockdown TS cells; test: Steady-state ATP levels (CellTiter-Glo) in GLDC/SHMT2 knockdown TS cells; assay type: cell-based, human; conditions: GLDC (or SHMT2) knockdown cells; formate 0.5 mM or adenosine 200 μM
Description: (§5) Cells were seeded into 96-well plates at a density of 1,000 cells/well at 10 replicate wells per condition. Cells were then left to equilibrate at 37° C. for 3 h. ATP was then quantified using the CellTiter-GLo reagent (Promega). 5 biological replicates were used.

ATP levels in Adh cells = test: Steady-state ATP levels (CellTiter-Glo) in Adh cells; assay type: cell-based, human; conditions: formate 0.5 mM
Description: as §5

[9] = test system: histone methylation in MTHFR overexpressing+GLDC KD cells; test: Western blot of methylated histones in MTHFR overexpressing+GLDC KD cells; assay type: cell-based, human; conditions: formate 0.5 mM
Description: as §4

[10] = methionine-starved TS cells (48 h) supplemented with SAM 500 μM or homocysteine 250 μM
[11] = TS cells, 500 μM SAM in the presence of FIDAS5

N.N.[Cl][Pt][Cl] [Cisplatin, cis-Diammineplatinum(II) dichloride]
tumor growth (TS cells (lung TICs) [1]): unable to halt tumor growth

N[C@@H](CCS)C(=O)O [Homocysteine, homocysteine]
histone methylation [2, 10]: failed to rescue

CC(C)C[C@@H](C=O)NC(=O)[C@H](CC(C)C)NC(=O)[C@H](CC(C)C)NC(=O)OCc1ccccc1 [MG132] (Cbz-Leu-Leu-Leu-aldehyde)
high turnover of methylated histones [3]: rescued

C[S+](CC[C@H](N)C(=O)O)C[C@H]1O[C@@H](n2cnc3c(N)ncnc32)[C@H](O)[C@@H]1O (stereo partly drawn) [SAM, S-adenosyl methionine]
histone methylation [2, 11]: rescued, to a large extent
histone methylation [2, 10]: restored
colony-formation capability (TS cells (lung TICs) [4]; [11]): rescued, to a large extent
colony-forming capability (TS cells (lung TICs) [4]; methionine starvation conditions, SAM 500 μM supplemented): rescued
tumor-formation capability (TS cells (lung TICs) [5]; TS cells, 500 μM SAM in the presence of FIDAS5, transplanted into NSG mice): rescued, to a large extent
tumor-forming capability (TS cells (lung TICs) [5]; methionine starvation conditions, SAM 500 μM supplemented, NSG mice): rescued
histone methylation [6]: reestablishment of histone methylation
tumorigenic potential (GLDC KD cells): incomplete rescue
MTHFR abundance [7]: recovery of MTHFR abundance

Nc1ncnc2c1ncn2[C@@H]1O[C@H](CO)[C@@H](O)[C@H]1O [adenosine, Adenosine]
histone methylation [6]: did not rescue
steady state ATP levels [8]: rescued ATP levels

O=C[O-].[Na+] [formate, Sodium formate]
histone methylation [6]: did not rescue
steady state ATP levels [8]: could be rescued; also recorded: rescued ATP levels
ATP levels (ATP levels in Adh cells): could not rescue
histone methylation [9]: fully rescued
